Reference: patent US12492193B2, “Pyrazole derivatives for the treatment of cystic fibrosis” (Fondazione Istituto Italiano Di Tecnologia, priority 2017, dated 2025)

How the values were obtained:
Format in all cases: cell-based
F508del-CFTR [1] = target: T1, F508del-CFTR (Homo sapiens, UniProt P13569, DEL508-508); experiment: Short-circuit current recordings on human bronchial epithelial cells (F508del/F508del); parameters: Human bronchial epithelial (HBE) cells obtained from CF patients (F508del/F508del genotype); endogenous in cells; host or cells: primary human bronchial epithelial cells from CF patients, F508del/F508del; details: HBE cells from CF patients (F508del/F508del), 24 hrs treatment; table 3
Method: Short-Circuit Current Recordings on Human Bronchial Epithelial Cells
Human bronchial epithelial (HBE) cells obtained from CF patients (F508del/F508del genotype) were plated on Snapwell inserts (Code 3801, Corning Life Sciences) at a density of 500,000 cells per insert. Cells were cultured for two weeks in a differentiating medium whose compositions has been previously described (Scudieri et al., J Physiol 590:6141-6155, 2012). For the first week, the medium was kept on both apical and basolateral sides of inserts (submerged condition). For the second week, the apical medium was removed (air-liquid condition, ALC). To test the activity of correctors, cells were treated for 24 hrs with compounds dissolved in the basolateral medium. After treatment, Snapwell inserts carrying differentiated bronchial epithelia were mounted in a vertical chamber resembling an Ussing system with internal fluid circulation. Both apical and basolateral hemichambers were filled with 5 mL of a Krebs bicarbonate solution containing (in mM): 126 NaCl, 0.38 KH2PO4, 2.13 K2HPO4, 1 MgSO4, 1 CaCl2), 24 NaHCO3, and 10 glucose. Both sides were continuously bubbled with a gas mixture containing 5% CO2-95% air and the temperature of the solution was kept at 37° C. The transepithelial voltage was short-circuited with a voltage-clamp (DVC-1000, World Precision Instruments) connected to the apical and basolateral chambers via Ag/AgCl electrodes and agar bridges (1 M KCl in 1% agar). The offset between voltage electrodes and the fluid resistance were canceled before experiments. The short-circuit current was recorded with a PowerLab 4/25 (ADInstruments) analogical to digital converter connected to a Macintosh computer. […] The difference between the current measured with CPT-cAMP plus potentiator and the current remaining after CFTRinh-172 treatment (ΔICFTR) was taken as the parameter reflecting F508del-CFTR expression in the apical membrane.
Activities of selected compounds on HBE cells (expressed as ΔICFTR) are illustrated in table 3 wherein +: ΔICFTR<2.0 μA; ++: 2.0 μA<ΔICFTR<3.0 μA; +++: ΔICFTR>3.0 μA.

F508del-CFTR [2] = target: T1, F508del-CFTR; experiment: Transepithelial electrical conductance (TEEC) in FRT cells expressing F508del-CFTR; parameters: expressed in transfected cells; host or cells: FRT cells; details: compounds tested at 5.0 μM, 24 hrs, table 2
Method: Transepithelial Electrical Conductance (TEEC)
FRT cells expressing F508del-CFTR were plated on HTS Transwell-24 well permeable supports (Code 3379, Corning Life Sciences) at a density of 200,000 cells/well. After six days, cells were incubated for 24 hrs with test correctors, vehicle, or VX-809. Compounds were dissolved in both basolateral (800 μL) and apical (300 μL) culture medium. After treatment, the culture medium was removed and replaced on both sides with a saline solution containing (in mM): 130 NaCl, 2.7 KCl, 1.5 KH2PO4, 1 CaCl2), 0.5 MgCl2, 10 glucose, 10 Na-Hepes (pH 7.4). The basolateral and apical side received 800 μL and […], respectively. The 24-well tray with cells was placed on a block heater (SBH 130D, Stuart) to keep the temperature at 37° C. during the entire experiment. After 10 min, the basal transepithelial electrical resistance (TEER) across each layer of FRT cells was measured with a STX100C electrode pair connected to an EVOM2 voltohmeter (World Precision Instruments). To stimulate F508del-CFTR, each well received (apical side) 50 μL of saline solution containing 60 μM forskolin and 150 μM genistein (final concentrations: 20 μM forskolin, 50 μM genistein). Forskolin was also pipetted in the basolateral medium to obtain the 20 μM concentration. After 10 min TEER was measured again in each well. To block F508del-CFTR function, the inhibitor PPQ-102 was used at the final concentration of 30 μM. To achieve the desired concentration, 75 μL of the apical solution in each well was replaced with an equal volume of saline solution containing 20 μM forskolin, 50 μM genistein, and 60 μM PPQ-102. After further 10 min, the transepithelial electrical resistance was measured. All values of TEER were converted to transepithelial electrical conductance (TEEC) using the formula TEEC=1/TEER. The parameter to indicate activity of F508del-CFTR in each well (ATEEC) was calculated from the difference in TEEC measured after maximal stimulation of F508del-CFTR with forskolin and genistein and after block with PPQ-102.
Corrector activities obtained on selected compounds tested at 5.0 μM (expressed as ΔTEEC values) are illustrated in table 2, wherein +: ΔTEEC<2000 μS; ++: 2000 μS<ΔTEEC<3000 μS; […]: ΔTEEC>3000 μS.

mutant CFTR = target: T2, mutant CFTR (Homo sapiens, UniProt P13569, DEL508-508); experiment: Fluorescence (HS-YFP) assay for CFTR activity, corrector assay; details: CFBE41o- and FRT cells with stable expression of mutant CFTR, 24 h compound treatment
T2 construct: expressed in transfected cells
Procedure, shortened: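 Corrector activity: 24 h compound treatment of HS-YFP/mutant-CFTR CFBE41o- or FRT cells, followed by 30 min forskolin 20 μM + genistein 50 μM at 37° C. Iodide influx (100 mM final) was tracked as fluorescence quenching, with dF/dt extrapolated by exponential fitting; EC50 values derived.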

T2 sequence (P13569 with tags, fused parts or gaps DEL508-508): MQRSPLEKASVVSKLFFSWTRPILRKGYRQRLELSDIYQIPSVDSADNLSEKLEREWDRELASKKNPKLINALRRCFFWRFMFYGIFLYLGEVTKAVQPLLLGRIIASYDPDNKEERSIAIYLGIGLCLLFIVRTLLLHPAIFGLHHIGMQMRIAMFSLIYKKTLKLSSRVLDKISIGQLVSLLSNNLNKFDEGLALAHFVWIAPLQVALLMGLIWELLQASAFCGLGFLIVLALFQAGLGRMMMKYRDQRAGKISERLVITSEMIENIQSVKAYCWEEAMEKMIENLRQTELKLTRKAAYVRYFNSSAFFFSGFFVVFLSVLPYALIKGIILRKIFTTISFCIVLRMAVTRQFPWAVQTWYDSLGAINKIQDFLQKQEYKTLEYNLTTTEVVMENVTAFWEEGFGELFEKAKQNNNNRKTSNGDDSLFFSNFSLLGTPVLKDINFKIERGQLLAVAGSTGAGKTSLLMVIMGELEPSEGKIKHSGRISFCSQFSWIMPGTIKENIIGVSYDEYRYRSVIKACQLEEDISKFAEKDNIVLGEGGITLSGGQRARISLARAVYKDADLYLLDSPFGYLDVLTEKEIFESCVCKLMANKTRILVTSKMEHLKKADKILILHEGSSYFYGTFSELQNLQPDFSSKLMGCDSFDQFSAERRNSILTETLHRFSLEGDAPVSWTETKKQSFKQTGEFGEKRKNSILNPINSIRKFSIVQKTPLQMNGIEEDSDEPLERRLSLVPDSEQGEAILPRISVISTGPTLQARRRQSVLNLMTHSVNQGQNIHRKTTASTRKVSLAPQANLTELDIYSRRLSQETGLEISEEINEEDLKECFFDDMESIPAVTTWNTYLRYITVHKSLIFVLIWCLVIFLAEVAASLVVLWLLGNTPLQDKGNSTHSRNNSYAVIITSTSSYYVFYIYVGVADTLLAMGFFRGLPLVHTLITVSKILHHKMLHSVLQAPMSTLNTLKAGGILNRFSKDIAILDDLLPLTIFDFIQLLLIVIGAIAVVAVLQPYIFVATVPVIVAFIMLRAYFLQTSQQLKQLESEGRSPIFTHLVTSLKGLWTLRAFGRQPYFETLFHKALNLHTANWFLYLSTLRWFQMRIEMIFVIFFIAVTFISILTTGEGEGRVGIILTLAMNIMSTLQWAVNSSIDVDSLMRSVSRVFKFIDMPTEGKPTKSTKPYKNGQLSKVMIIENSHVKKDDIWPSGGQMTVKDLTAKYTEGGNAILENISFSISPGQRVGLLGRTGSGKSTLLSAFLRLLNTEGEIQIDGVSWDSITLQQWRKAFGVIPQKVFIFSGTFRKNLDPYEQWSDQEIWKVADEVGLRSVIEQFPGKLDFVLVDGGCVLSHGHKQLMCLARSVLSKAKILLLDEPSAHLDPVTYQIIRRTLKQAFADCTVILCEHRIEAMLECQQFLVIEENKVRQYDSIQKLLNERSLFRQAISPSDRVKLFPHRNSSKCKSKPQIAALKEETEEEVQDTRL
T1 sequence (P13569 with tags, fused parts or gaps DEL508-508): as above

activity on HBE cells (ΔICFTR) (F508del-CFTR [1]) | Corrector activity (ΔTEEC) (F508del-CFTR [2]) | EC50 (mutant CFTR) [µM] | Structure (SMILES)
+ (ΔICFTR<2.0 μA) | ++ (2000 μS<ΔTEEC<3000 μS) | < 1 | Cc1nc2ccc(N(C)C(=O)c3cccc(-n4nc(C(F)(F)F)c(Cl)c4C)c3)cc2o1 [compound 108, 3-[4-Chloro-5-methyl-3-(trifluoromethyl)pyrazol-1-yl]-N-methyl-N-(2-methyl-1,3-benzoxazol-6-yl)benzamide]
++ (2.0 μA<ΔICFTR<3.0 μA) | + (ΔTEEC<2000 μS) | 1 to 2 | Cc1nn(-c2cccc(C(=O)N(C)c3ccc4c(c3)OC(F)(F)O4)c2)c(C)c1Cl [compound 009, 3-(4-Chloro-3,5-dimethyl-pyrazol-1-yl)-N-(2,2-difluoro-1,3-benzodioxol-5-yl)-N-methyl-benzamide]
++ (2.0 μA<ΔICFTR<3.0 μA) | ++ (2000 μS<ΔTEEC<3000 μS) | < 1 | Cc1nn(-c2cccc(C(=O)N(C)c3ccc4c(c3)OCO4)c2)c(C)c1C(F)(F)F [compound 099, N-(1,3-Benzodioxol-5-yl)-3-[3,5-dimethyl-4-(trifluoromethyl)pyrazol-1-yl]-N-methyl-benzamide]
